US6881741B2 (ViroChem Pharma Inc., priority 2001, dated 2005)

Biological target: recombinant HCV NS5B (HCV RNA-dependent RNA polymerase) (Hepatitis C virus genotype 1b, UniProt P26663)
Assay: biochemical
Details: HCV polymerase activity, list of compounds of Example 27; read-out: IC50 (polymerase activity)

recombinant HCV NS5B (HCV RNA-dependent RNA polymerase), sequence (P26663 2420-3010 limits assumed): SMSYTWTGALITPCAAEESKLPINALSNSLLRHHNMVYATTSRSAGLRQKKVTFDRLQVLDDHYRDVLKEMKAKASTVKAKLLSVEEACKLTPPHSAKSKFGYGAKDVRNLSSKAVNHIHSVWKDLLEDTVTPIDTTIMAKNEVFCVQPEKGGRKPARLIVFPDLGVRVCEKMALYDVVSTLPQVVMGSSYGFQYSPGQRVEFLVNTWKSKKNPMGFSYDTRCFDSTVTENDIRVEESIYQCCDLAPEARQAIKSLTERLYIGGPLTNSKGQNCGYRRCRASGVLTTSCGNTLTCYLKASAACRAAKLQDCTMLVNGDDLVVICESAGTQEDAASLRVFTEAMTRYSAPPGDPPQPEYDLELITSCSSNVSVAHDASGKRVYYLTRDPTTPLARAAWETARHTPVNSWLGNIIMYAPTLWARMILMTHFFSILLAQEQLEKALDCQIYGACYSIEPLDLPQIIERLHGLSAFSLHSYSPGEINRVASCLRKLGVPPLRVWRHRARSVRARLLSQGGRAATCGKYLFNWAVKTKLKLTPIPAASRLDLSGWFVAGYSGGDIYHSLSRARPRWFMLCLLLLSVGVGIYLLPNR

`CCC(=O)N(Cc1ccc([N+](=O)[O-])cc1)c1cc(-c2ccccc2)sc1C(=O)O` [Compound 418, 3-[(4-NITRO-BENZYL)-PROPIONYL- AMINO]-5-PHENYL-THIOPHENE-2- CARBOXYLIC ACID] and `CC(=O)N(Cc1ccc(Cl)cc1)c1cc(-c2ccccc2)sc1C(=O)O` [Compound 455, 3-[ACETYL-(4-CHLORO-BENZYL)-AMINO]- 5-PHENYL-THIOPHENE-2-CARBOXYLIC ACID] fall in the same range of IC50: 5 to 20 µM for the first, 5 to 20 µM for the second.

Compared with `COCC(=O)N(Cc1cccc(Cl)c1)c1cc(-c2ccccc2)sc1C(=O)O` [Compound 478, 3-[(3-CHLORO-BENZYL)-(2-METHOXY- ACETYL)-AMINO]-5-PHENYL-THIOPHENE- 2-CARBOXYLIC ACID], `CC(C)CC(=O)N(Cc1cccc(Cl)c1)c1cc(-c2ccccc2)sc1C(=O)O` [Compound 479, 3-[(3-CHLORO-BENZYL)-(3-METHYL- BUTYRYL)-AMINO]-5-PHENYL- THIOPHENE-2-CARBOXYLIC ACID] is lower in IC50: greater than 20 µM for the first, less than 5 µM for the second.

`CCCC(=O)N(Cc1cccc(OC)c1)c1cc(-c2ccccc2)sc1C(=O)O` [Compound 475, 3-[BUTYRYL-(3-METHOXY-BENZYL)- AMINO]-5-PHENYL-THIOPHENE-2- CARBOXYLIC ACID] and `CC(=O)N(Cc1cccc(C)c1)c1cc(-c2ccccc2)sc1C(=O)O` [Compound 434, 3-[ACETYL-(3-METHYL-BENZYL)-AMINO]- 5-PHENYL-THIOPHENE-2-CARBOXYLIC ACID] fall in the same range of IC50: 5 to 20 µM for the first, 5 to 20 µM for the second.

First: CC(C)N(C(=O)c1ccc(Cl)cc1Cl)c1cc(-c2nccs2)sc1C(=O)O [Compound 449, 3-[(2,4-DICHLORO-BENZOYL)- ISOPROPYL-AMINO]-5-THIAZOL-2-YL- THIOPHENE-2-CARBOXYLIC ACID]
Second: CC(C)N(C(=O)c1ccc(Cl)cc1Cl)c1c(C(=O)O)sc(-c2ccccc2)c1F [Compound 542, 3-[(2,4-DICHLORO-BENZOYL)- ISOPROPYL-AMINO]-4-FLUORO-5- PHENYL-THIOPHENE-2-CARBOXYLIC ACID]
The IC50 of the first is lower: less than 5 µM for the first, 5 to 20 µM for the second.

`Cc1ccc(S(=O)(=O)Nc2cc(-c3ccc(Cl)cc3)sc2C(N)=O)cc1` [Compound 563, 5-(4-CHLORO-PHENYL)-3-(TOLUENE-4- SULFONYLAMINO)-THIOPHENE-2- CARBOXYLIC ACID AMIDE] and `CN(C(=O)c1cc(-c2ccccc2)sc1C(=O)O)c1ccc(Cl)cc1Cl` [Compound 585, 3-[(2,4-DICHLORO-PHENYL)-METHYL- CARBAMOYL]-5-PHENYL-THIOPHENE-2- CARBOXYLIC ACID] fall in the same range of IC50: 5 to 20 µM for the first, 5 to 20 µM for the second.

`O=C(O)c1sc(-c2ccccc2)cc1N(Cc1ccc(C(F)(F)F)cc1)C(=O)C1CC1` [Compound 413, 3-[CYCLOPROPANECARBONYL-(4- TRIFLUOROMETHYL-BENZYL)-AMINO]-5- PHENYL-THIOPHENE-2-CARBOXYLIC ACID] and `CC(C)(C)c1ccc(CN(C(=O)C2CC2)c2cc(-c3ccccc3)sc2C(=O)O)cc1` [Compound 438, 3-[(4-TERT-BUTYL-BENZYL)- CYCLOPROPANECARBONYL-AMINO]-5- PHENYL-THIOPHENE-2-CARBOXYLIC ACID] fall in the same range of IC50: 5 to 20 µM for the first, 5 to 20 µM for the second.

`CC(C1CCN(C(=O)OCc2ccccc2)CC1)N(C(=O)c1ccc(Cl)cc1Cl)c1cc(-c2ccccc2)sc1C(=O)O` (stereo not shown) [Compound 523, 4-{1-[(2-CARBOXY-5-PHENYL-THIOPHEN- 3-YL)-(2,4-DICHLORO-BENZOYL)-AMINO]- ETHYL}-PIPERIDINE-1-CARBOXYLIC ACID BENZYL ESTER] and `O=C(O)c1sc(-c2ccccc2)cc1N(Cc1ccc(Cl)cc1)C(=O)C1CC1` [Compound 459, 3-[(4-CHLORO-BENZYL)- CYCLOPROPANECARBONYL-AMINO]-5- PHENYL-THIOPHENE-2-CARBOXYLIC ACID] fall in the same range of IC50: 5 to 20 µM for the first, 5 to 20 µM for the second.

For `CCCC(=O)N(CC)c1cc(-c2ccccc2)sc1C(=O)O` [Compound 493, 3-(BUTYRYL-ETHYL-AMINO)-5-PHENYL- THIOPHENE-2-CARBOXYLIC ACID], the IC50 was 5 to 20 µM.

Same assay, conditions: IC50

`CC1CCC(C(=O)N(c2cc(-c3ccccc3)sc2C(=O)O)C(C)C)CC1` (stereo not shown) [Compound 316, 3-[ISOPROPYL-(4-METHYL- CYCLOHEXANECARBONYL)-AMINO]-5- PHENYL-THIOPHENE-2-CARBOXYLIC ACID] showed an IC50 greater than 20 µM.

Same assay, conditions: related polymerase activity (Example 27 list); read-out: IC50

`Cc1ccccc1S(=O)(=O)Nc1cc(-c2ccc([N+](=O)[O-])cc2)sc1C(=O)O` [Compound 59, 5-(4-NITRO-PHENYL)-3-(TOLUENE-2-SULFONYLAMINO)-THIOPHENE-2-CARBOXYLIC ACID] and `COc1ccc(-c2cc(NS(=O)(=O)c3ccccc3C)c(C(=O)O)s2)cc1` [Compound 122, 5-(4-METHOXY-PHENYL)-3-(TOLUENE-2-SULFONYLAMINO)-THIOPHENE-2-CARBOXYLIC ACID] cannot be ordered by IC50: less than 5 µM for the first, less than 5 µM for the second.

`Cc1ccccc1S(=O)(=O)Nc1cc(-c2cc3ccccc3s2)sc1C(=O)O` [Compound 230, 5-BENZO[B]THIOPHEN-2-YL-3-(TOLUENE-2-SULFONYLAMINO)-THIOPHENE-2-CARBOXYLIC ACID] and `Cc1ccccc1S(=O)(=O)Nc1cc(-c2cc3ccccc3o2)sc1C(=O)O` [Compound 127, 5-BENZOFURAN-2-YL-3-(TOLUENE-2-SULFONYLAMINO)-THIOPHENE-2-CARBOXYLIC ACID] cannot be ordered by IC50: less than 5 µM for the first, less than 5 µM for the second.

Compared with `CN(C(=O)c1cc2ccccc2o1)c1cc(-c2ccccc2)sc1C(=O)O` [Compound 130, 3-[(BENZOFURAN-2-CARBONYL)-METHYL-AMINO]-5-PHENYL-THIOPHENE-2-CARBOXYLIC ACID], `CN(C(=O)c1ccc2ccccc2c1)c1cc(-c2ccccc2)sc1C(=O)O` [Compound 252, 3-[METHYL-(NAPHTHALENE-2-CARBONYL)-AMINO]-5-PHENYL-THIOPHENE-2-CARBOXYLIC ACID] is lower in IC50: greater than 20 µM for the first, 5 to 20 µM for the second. The second is the more potent here.

`Cc1noc(C)c1S(=O)(=O)Nc1cc(-c2ccccc2)sc1C(=O)O` [Compound 94, 3-(3,5-DIMETHYL-ISOXAZOLE-4-SULFONYLAMINO)-5-PHENYL-THIOPHENE-2-CARBOXYLIC ACID] and `Cc1nn(C)c(Cl)c1S(=O)(=O)Nc1cc(-c2ccccc2)sc1C(=O)O` [Compound 41, 3-(5-CHLORO-1,3-DIMETHYL-1H-PYRAZOLE-4-SULFONYLAMINO)-5-PHENYL-THIOPHENE-2-CARBOXYLIC ACID] fall in the same range of IC50: 5 to 20 µM for the first, 5 to 20 µM for the second.

`Cc1ccc(S(=O)(=O)Nc2cc(-c3ccc(C#N)cc3)sc2C(=O)O)c(C)c1` [Compound 288, 5-(4-CYANO-PHENYL)-3-(2,4-DIMETHYL-BENZENESULFONYLAMINO)-THIOPHENE-2-CARBOXYLIC ACID] and `Cc1ccc(S(=O)(=O)Nc2cc(-c3ccc(S(C)(=O)=O)cc3)sc2C(=O)O)c(C)c1` [Compound 321, 3-(2,4-DIMETHYL- BENZENESULFONYLAMINO)-5-(4- METHANESULFONYL-PHENYL)- THIOPHENE-2-CARBOXYLIC ACID] cannot be ordered by IC50: less than 5 µM for the first, less than 5 µM for the second.

`CC(C)N(C(=O)c1ccc(Cl)cc1Cl)c1cc(-c2ccccc2)sc1C(=O)O` [Compound 149, 3-[(2,4-DICHLORO-BENZOYL)-ISOPROPYL-AMINO]-5-PHENYL-THIOPHENE-2-CARBOXYLIC ACID] and `Cc1ccc(C(=O)N(c2cc(-c3ccccc3)sc2C(=O)O)C(C)C)c(Br)c1` [Compound 309, 3-[(2-BROMO-4-METHYL-BENZOYL)- ISOPROPYL-AMINO]-5-PHENYL- THIOPHENE-2-CARBOXYLIC ACID] cannot be ordered by IC50: less than 5 µM for the first, less than 5 µM for the second.

First: Cc1ccc(C(=O)N(C)c2cc(-c3ccc(C#N)cc3)sc2C(=O)O)cc1 [Compound 193, 5-(4-CYANO-PHENYL)-3-[METHYL-(4-METHYL-BENZOYL)-AMINO]-THIOPHENE-2-CARBOXYLIC ACID]
Second: Cc1ccc(C(=O)N(C)c2cc(-c3ccccc3)sc2C(=O)O)c(C)c1 [Compound 131, 3-[(2,4-DIMETHYL-BENZOYL)-METHYL-AMINO]-5-PHENYL-THIOPHENE-2 CARBOXYLIC ACID]
The IC50 of the first is higher: 5 to 20 µM for the first, less than 5 µM for the second.

First: CN(C(=O)c1ccc(C(F)(F)F)cc1)c1cc(-c2ccccc2)sc1C(=O)O [Compound 209, 3-[4-(TRIFLUOROMETHYL-BENZOYL)METHYLAMINE]-5-PHENYL-THIOPHENE-2-CARBOXYLIC ACID]
Second: CCCCc1ccc(C(=O)N(C)c2cc(-c3ccccc3)sc2C(=O)O)cc1 [Compound 188, 3-[(4-BUTYL-BENZOYL)-METHYL-AMINO]-5-PHENYL-THIOPHENE-2-CARBOXYLIC ACID]
The IC50 of the first is lower: 5 to 20 µM for the first, greater than 20 µM for the second. The first is the more potent here.

`CCS(=O)(=O)Nc1cc(-c2ccccc2)sc1C(=O)O` [Compound 242, 3-ETHANESULFONYLAMINO-5-PHENYL-THIOPHENE-2-CARBOXYLIC ACID] and `O=C(O)c1sc(-c2ccccc2)cc1NS(=O)(=O)c1cc(Cl)sc1Cl` [Compound 55, 3-(2,5-DICHLORO-THIOPHENE-3-SULFONYLAMINO)-5-PHENYL-THIOPHENE-2-CARBOXYLIC ACID] fall in the same range of IC50: 5 to 20 µM for the first, 5 to 20 µM for the second.

Compared with `CC(C)c1ccc(S(=O)(=O)Nc2cc(-c3ccccc3)sc2C(=O)O)cc1` [Compound 43, 3-(4-ISOPROPYL-BENZENESULFONYLAMINO)-5-PHENYL-THIOPHENE-2-CARBOXYLIC ACID], `Cc1ccc(S(=O)(=O)Nc2cc(-c3ccc(F)cc3)sc2C(=O)O)cc1` [Compound 6, 5-(4-FLUORO-PHENYL)-3-(TOLUENE-4-SULFONYLAMINO)-THIOPHENE-2-CARBOXYLIC ACID] is lower in IC50: 5 to 20 µM for the first, less than 5 µM for the second. The second is the more potent here.

`O=C(O)c1sc(-c2ccccc2)cc1NC(=O)N1CCN(c2ccccc2Cl)CC1` [Compound 159, 3-{[4-(2-CHLORO-PHENYL)-PIPERAZINE-1-CARBONYL]-AMINO}-5-PHENYL-THIOPHENE-2-CARBOXYLIC ACID] and `O=C(NCCCc1ccccc1)Nc1cc(-c2ccccc2)sc1C(=O)O` [Compound 179, 5-PHENYL-3-[3-(3-PHENYL-PROPYL)-UREIDO]-THIOPHENE-2-CARBOXYLIC ACID] fall in the same range of IC50: 5 to 20 µM for the first, 5 to 20 µM for the second.

Compared with `Cc1cc(S(=O)(=O)N(Cc2cccc(-c3cc4ccccc4o3)c2)c2cc(-c3ccccc3)sc2C(=O)O)c(C)cc1Cl` [Compound 2, 3-[(3-BENZOFURAN-2-YL-BENZYL)-(4-CHLORO-2,5-DIMETHYL-BENZENESULFONYL)-AMINO]-5-PHENYL-THIOPHENE-2-CARBOXYLIC ACID], `CC(C)N(C(=O)c1ccc(Cl)cc1Cl)c1cc(-c2ccc(C(=O)O)cc2)sc1C(=O)O` [Compound 375, 5-(4-CARBOXY-PHENYL)-3-[(2,4- DICHLORO-BENZOYL)-ISOPROPYL- AMINO]-THIOPHENE-2-CARBOXYLIC ACID] is lower in IC50: 5 to 20 µM for the first, less than 5 µM for the second.
